Results reported in patent publication US8551984B2, “Aminopyrimidines as SYK inhibitors” (Merck Sharp & Dohme Corp., priority 2009, dated 2013).

Molecular target: recombinant human SYK (GST-hSYK fusion protein) (Homo sapiens, UniProt P43405)
Assay: biochemical
[1] = rhSYK Activity (IC50), recombinant human GST-SYK 5 pM, ATP 25 μM, biotinylated substrate peptide 250 nM, HTRF, 10-dose titration

Excerpt: Homogeneous Time-Resolved Fluorescence (HTRF) Assay for the Recombinant Human SYK Enzyme:

Question: How did the IC50 (rhSYK Activity, table of Examples 19-x) turn out when `CC(C)NC(=O)Nc1cc(Nc2nccc(C(F)(F)F)n2)cc(-c2cnc(C3(O)CCC3)s2)c1` [Example 19-4] was run?
Answer: < 100 nM

Question: Which IC50 [1] does the source give for `CNC(=O)CN(C)C(=O)c1ncc(-c2cc(C)cc(Nc3nccc(C(F)(F)F)n3)c2)s1` [Example 87A-30] here?
Answer: < 100 nM

Question: With `Cc1cc(Nc2nccc(C(F)(F)F)n2)cc(-c2cnc(C3(O)CCC(NC(=O)C4CC(O)C4)CC3)s2)c1` (stereo not drawn) [Example 54E-7] as the molecule, how does the IC50 (rhSYK Activity, Table 54E) read?
Answer: < 100 nM

Question: How did the IC50 [1] turn out when `Cc1cc(Nc2nccc(C(F)(F)F)n2)cc(-c2cnc(CN3CCC[S+]([O-])CC3)s2)c1` (stereo not drawn) [Example 88B-4] was run?
Answer: < 100 nM

Question: Which IC50 (rhSYK Activity, Table 15) does the source give for `OC1(c2ncc(-c3cccc(Nc4nccc(C(F)(F)F)n4)c3)s2)CCCC1` [Example 15-2] here?
Answer: < 100 nM

Question: `Cc1cc(Nc2nccc(C(F)(F)F)n2)cc(-c2cnc(C3(O)C[C@@H]4C(C(=O)O)[C@@H]4C3)s2)c1` (stereo partly drawn) [Example 33C-9] was tested. Which IC50 (rhSYK Activity, Table 33C) did it give?
Answer: < 100 nM

Question: With `Cc1cc(Nc2nccc(C(F)(F)F)n2)cc(-c2cnc(C3(F)CCS(=O)(=O)CC3)s2)c1` [Example 134, N-{3-[2-(4-fluoro-1,1-dioxidotetrahydro-2H-thiopyran-4-yl)-1,3-thiazol-5-yl]-5-methylphenyl}-4-(trifluoromethyl)pyrimidin-2-amine] as the molecule, how does the IC50 [1] read?
Answer: < 100 nM

Question: With `Cc1cc(Nc2nccc(C(F)(F)F)n2)cc(-c2cnc(C3(NS(=O)(=O)CC(F)(F)F)CCC3)s2)c1` [Example 61B-2] as the molecule, how does the IC50 (rhSYK Activity, Table 61B) read?
Answer: < 100 nM

Question: `Cc1cc(Nc2nccc(C(F)(F)F)n2)cc(-c2cnc(C3(O)CCC(C(=O)O)C(C)(C)C3C)s2)c1` (single isomer, unassigned) [Example 33A-77] was tested. Which IC50 (rhSYK Activity, Table 33-A) did it give?
Answer: < 100 nM

Question: For `O=C(O)[C@H]1CC[C@@](O)(c2ncc(-c3cccc(Nc4nccc(C(F)(F)F)n4)c3)s2)CC1` [Example 33A-23], which IC50 (rhSYK Activity, Table 33-A) is on record?
Answer: < 100 nM

Question: Which IC50 [1] does the source give for `Cc1cc(Nc2nccc(C(F)(F)F)n2)cc(-c2cnc(C(=O)N(CCO)CCO)s2)c1` [Example 87A-29] here?
Answer: < 100 nM

Question: `COC(=O)[C@H]1CC[C@](O)(c2ncc(-c3cc(C)cc(Nc4ncc5c(n4)CCC5)c3)s2)CC1(C)C` [Example 100A-29] was tested. Which IC50 [1] did it give?
Answer: 100 to 1000 nM

Question: `Cc1cc(Nc2nccc(C(F)(F)F)n2)cc(-c2cnc(C(=O)N3CCn4cccc4C3)s2)c1` [Example 87B-6] was tested. Which IC50 [1] did it give?
Answer: < 100 nM

Question: For `Cc1cc(Nc2nccc(C(F)(F)F)n2)cc(-c2cnc(C3(O)CCCN(C(=O)c4ccccc4)CC3)s2)c1` (stereo not drawn) [Example 54D-45], which IC50 (rhSYK Activity, Table 54D) is on record?
Answer: < 100 nM

Question: `CCSc1ccnc(Nc2cc(C)cc(-c3cnc(C4(O)CCC4)s3)c2)n1` [Example 108A-40] was tested. Which IC50 (rhSYK Activity, Table 108A) did it give?
Answer: < 100 nM

Question: For `O=C(Nc1cc(Nc2nccc(OC3CCOCC3)n2)cc(-c2cnc(C3(O)CCC3)s2)c1)C(F)(F)F` [Example 109-7], which IC50 (rhSYK Activity, Table 109) is on record?
Answer: 100 to 1000 nM

Question: How did the IC50 (rhSYK Activity, Table 74B) turn out when `Cc1cc(Nc2nccc(C(F)(F)F)n2)cc(-c2cnc(C3(S(N)(=O)=O)CCC3)s2)c1` [Example 74B-4] was run?
Answer: < 100 nM

Question: How did the IC50 (rhSYK Activity, Table 113A) turn out when `COC(=O)[C@H]1CC[C@](O)(c2ncc(-c3cc(C)cc(Nc4nccc(C#N)n4)c3)s2)CC1(C)C` [Example 113A-50] was run?
Answer: < 100 nM

Question: How did the IC50 (rhSYK Activity, table after Example 68) turn out when `OC1(c2ncc(-c3cccc(Nc4nccc(C(F)(F)F)n4)c3)s2)CCC1` [Example 68-2] was run?
Answer: < 100 nM

Question: With `Cc1cc(Nc2nccc(C)n2)cc(-c2cnc(C3(O)CC(C)C(C(=O)O)C(C)C3)s2)c1` (stereo not drawn) [Example 113B-21] as the molecule, how does the IC50 (rhSYK Activity, Table 113B) read?
Answer: < 100 nM

Question: How did the IC50 [1] turn out when `Cc1cc(Nc2nccc(C3CC3)n2)cc(-c2cnc([C@]3(O)CC[C@@H](C(=O)O)CC3)s2)c1` [110(1), Cis-4-(5-(3-[(4-cyclopropylpyrimidin-2-yl)amino]-5-methylphenyl)-1,3-thiazol-2-yl)-4-hydroxycyclohexanecarboxylic acid] was run?
Answer: < 100 nM

Question: With `Cc1cc(Nc2nccc(C(F)(F)F)n2)cc(-c2cnc(CNc3cc(C(=O)O)n[nH]3)s2)c1` [Example 88A-32] as the molecule, how does the IC50 [1] read?
Answer: < 100 nM

Question: Which IC50 (rhSYK Activity, Table 116A) does the source give for `COC(=O)C1CCC(O)(c2ncc(-c3cc(C)cc(Nc4ncc(F)cn4)c3)s2)CC1(C)C` (stereo not drawn) [116A-22] here?
Answer: 100 to 1000 nM

Question: For `Cc1cc(Nc2nccc(C(F)(F)F)n2)cc(-c2cnc(C3(NS(C)(=O)=O)CCC3)s2)c1` [Example 61B-4], which IC50 (rhSYK Activity, Table 61B) is on record?
Answer: < 100 nM

Question: `Cc1cc(Nc2nccc(C(F)(F)F)n2)cc(-c2cnc(C(=O)NC3CCC(C(=O)O)CC3)s2)c1` (stereo not drawn) [Example 87A-37] was tested. Which IC50 [1] did it give?
Answer: < 100 nM

Question: Which IC50 [1] does the source give for `Cc1cc(Nc2nccc(C(F)(F)F)n2)cc(-c2cnc([C@@]3(O)CC[C@H](C(=O)O)C(C)(C)C3)s2)c1Br` [Example 111, (1S,4R)-4-[5-(2-bromo-3-methyl-5-{[4-(trifluoromethyl)pyrimidin-2-yl]amino}phenyl)-1,3-thiazol-2-yl]-4-hydroxy-2,2-dimethylcyclohexanecarboxylic acid] here?
Answer: < 100 nM

Question: `Cc1cc(Nc2nccc(C)n2)cc(-c2cnc(C3(O)CC(C)C(C(=O)OC(C)C)C(C)C3)s2)c1` (stereo not drawn) [Example 113B-23] was tested. Which IC50 (rhSYK Activity, Table 113B) did it give?
Answer: 100 to 1000 nM

Question: `Cc1cc(Nc2ncc(F)c(C)n2)cc(-c2cnc([C@]3(O)CC[C@@H](C(=O)O)CC3)s2)c1` [116A-2] was tested. Which IC50 (rhSYK Activity, Table 116A) did it give?
Answer: < 100 nM

Question: How did the IC50 (rhSYK Activity, Table 108A) turn out when `CCOc1ccnc(Nc2cc(C)cc(-c3cnc(C4(O)CCC4)s3)c2)n1` [Example 108A-36] was run?
Answer: < 100 nM

Question: How did the IC50 (rhSYK Activity, Table 74A) turn out when `COc1ccnc(Nc2cc(C)cc(-c3cnc(C(C)(C)S(N)(=O)=O)s3)c2)n1` [74A-4] was run?
Answer: < 100 nM
